Experimental data from publication PMC9007913 (Angewandte Chemie (International ed. in English), 2022).

Test system: ID8 cells
Assay: Inhibition assay of cellular uptake of OCTL14
Format: cell-based, murine
Details: pre-blocked 5-30 min, then 2 μM OCTL14 for 30 min

Row | SMILES | change in cellular uptake of OCTL14 after pretreatment with inhibitor
1 | O=C1OC(c2ccc(O)c(S(=O)(=O)O)c2)(c2ccc(O)c(S(=O)(=O)O)c2)c2c(Br)c(Br)c(Br)c(Br)c21 [BSP, bromsulphthalein] | did not result in significant changes in cellular uptake
2 | CN(C)C(=O)CCSC(SCCC(=O)O)c1cccc(/C=C/c2ccc3ccc(Cl)cc3n2)c1 (stereo not shown) [MK-571] | little change in cellular uptake
3 | O=C1NC(=NS(=O)(=O)c2cccc3ccccc23)S/C1=C\c1ccc(Br)cc1 [Pitstop 2] | did not result in any appreciable change in cellular uptake
4 | O=C(N/N=C/c1cc(O)c(O)cc1O)c1cc2ccccc2cc1O [Dyngo 4a] | did not result in any appreciable change in cellular uptake
